From PubChem BioAssay AID1259408 (Genetic Toxicology Data Bank (GENE-TOX), 2018) come the findings set out here.

The data set deals with GENE-TOX genotoxicity assays, various organisms and cells. Briefly: GENE-TOX mutagenicity studies. As to conditions: for call: Assay Type: In vivo carcinogenicity studies, Assay Code: CCG+.
Setting [1] is: Species/Cell Type: Escherichia coli polA (W3119 vs P3478), Assay Type: Rec-assay, DNA effects (bacterial DNA repair), Assay Code: RE1T, Evaluation Type: Evaluation A (Pre-1980).
The mark [2] stands for this setting: Species/Cell Type: Salmonella typhimurium (one or more of the five standard strains: TA98, TA100, TA1535, TA1537, and TA1538), Assay Type: Histidine reverse gene mutation, Ames assay, Assay Code: SAL+, Evaluation Type: Evaluation A (Pre-1980).
[3] abbreviates: Species/Cell Type: Drosophila melanogaster, Assay Type: Sex-linked recessive lethal gene mutation, Assay Code: SRL+, Evaluation Type: Evaluation A (Pre-1980).
Where [4] appears, read: Species/Cell Type: Mammalian polychromatic erythrocytes, Assay Type: Micronucleus test, chromosome aberrations, Assay Code: MNT+, Evaluation Type: Evaluation A (Pre-1980).
Where [5] appears, read: Species/Cell Type: Neurospora crassa, Assay Type: Forward gene mutation, Assay Code: NEF+, Evaluation Type: Evaluation A (Pre-1980).
Where [6] appears, read: Species/Cell Type: Saccharomyces cerevisiae, Assay Type: Mitotic recombination or gene conversion, Assay Code: YEC+, Evaluation Type: Evaluation A (Pre-1980).
The mark [7] stands for this setting: Species/Cell Type: Nonhuman, Evaluation Type: Evaluation A (Pre-1980).
The mark [8] stands for this setting: Species/Cell Type: Salmonella typhimurium (one or more of the five standard strains: TA98, TA100, TA1535, TA1537, and TA1538), Assay Type: Histidine reverse gene mutation, Ames assay, Assay Code: SALT, Evaluation Type: Evaluation A (Pre-1980).
[9] abbreviates: Species/Cell Type: Salmonella typhimurium (one or more of the five standard strains: TA98, TA100, TA1535, TA1537, and TA1538), Assay Type: Histidine reverse gene mutation, Ames assay, Assay Code: SAL+*, Activation: With metabolic activation, Evaluation Type: Evaluation A (Pre-1980).
Where [10] appears, read: Species/Cell Type: Tradescantia species, Assay Type: Gene mutation, Assay Code: TRM+D, Dose Response: With dose response, Evaluation Type: Evaluation A (Pre-1980).
Setting [11] is: Species/Cell Type: Drosophila melanogaster, Assay Type: Sex-linked recessive lethal gene mutation, Assay Code: SRLT, Evaluation Type: Evaluation A (Pre-1980).

Calls of active or inactive are those of the source. How the calls were made is not given here.

Take `COc1ccc(C(=O)N2c3ccccc3Cc3ccccc32)cc1`: the mutagenic call (Species/Cell Type: Human, Sex: Male, Assay Type: Sperm morphology, Assay Code: SPH+, Evaluation Type: Evaluation A (Pre-1980)) was “active; positive”.
With `CN(N=O)C(=O)Nc1ccc(Br)cc1`, where the note is “Species/Cell Type: Nonhuman, Assay Type: Sister-chromatid exchange (SCE) in vitro, Assay Code: SC2+D, Dose Response: With dose response, Evaluation Type: Evaluation B (Post-1980)”, the mutagenic call was “active; positive”.
For `O=[N+]([O-])c1cccc([N+](=O)[O-])c1Cl`, the mutagenic call under setting [1] is “no conclusion”.
Turning to `Cc1c2occc2cc2c1oc(=O)c1cnccc12`, the mutagenic call (Species/Cell Type: Human, Assay Type: Sister-chromatid exchange (SCE) in vitro, Assay Code: SC1+, Evaluation Type: Evaluation B (Post-1980)) is “active; positive”.
For the compound `O=C(O)c1ccccc1[N+](=O)[O-]`, under setting [2], the mutagenic call was “active; positive”.
`[Be+2]`: the mutagenic call (Species/Cell Type: Bacillus subtilis (H17 vs M45), Assay Type: Rec-assay, spot test, DNA effects (bacterial DNA repair), Assay Code: REW-, Evaluation Type: Evaluation A (Pre-1980)) is “inactive; negative”.
For the compound `ClCc1c2ccccc2c(CCl)c2ccccc12`, the mutagenic call under setting [2] is “active; positive”.
`CCCCC[C@H](O)/C=C/[C@@H]1[C@@H](C/C=C\CCCC(=O)O)[C@@H](O)C[C@H]1O`: the mutagenic call (Species/Cell Type: Rabbit, Sex: Male, Assay Type: Sperm morphology, Assay Code: SPR+, Evaluation Type: Evaluation A (Pre-1980)) is “active; positive”.
On to `CC(CN1CC(=O)NC(=O)C1)N1CC(=O)NC(=O)C1` (centres undefined), for which the mutagenic call (Species/Cell Type: Salmonella typhimurium (one or more of the five standard strains: TA98, TA100, TA1535, TA1537, and TA1538), Assay Type: Histidine reverse gene mutation, Ames assay, Assay Code: SAL-, Evaluation Type: Evaluation A (Pre-1980)) was “inactive; negative”.
As to `CN(C)N=Nc1c(Cl)cc(Cl)cc1Cl`, the mutagenic call reads like this: (Species/Cell Type: Drosophila melanogaster, Assay Type: Aneuploidy, partial sex chromosome loss, chromosome aberrations, Assay Code: DAPT, Evaluation Type: Evaluation A (Pre-1980)) “no conclusion”; (Species/Cell Type: Drosophila melanogaster, Assay Type: Aneuploidy, whole sex chromosome loss, chromosome aberrations, Assay Code: DACT, Evaluation Type: Evaluation A (Pre-1980)) “no conclusion”; under setting [3], “active; positive”; under setting [4], “active; positive”; under setting [5], “active; positive”; under setting [6], “active; positive”.
As for `CCN(C)N=O`, under setting [7], the call was “active; positive”. In addition, under setting [8], the mutagenic call is reported as “no conclusion”.
Regarding `O=[N+]([O-])c1cccc2ncccc12`, under setting [2], the mutagenic call was “active; positive”.
Take `CCCNP(=O)(N1CC1)N1CC1`: the mutagenic call is “active; positive” under setting [3]; “active; positive” (Species/Cell Type: Nonhuman, Assay Type: Chromosome aberrations in vitro, Assay Code: CY&+, Evaluation Type: Evaluation A (Pre-1980)); “active; positive” (Species/Cell Type: Schizosaccharomyces pombe, Assay Type: Reverse gene mutation, Assay Code: YEZ+, Evaluation Type: Evaluation A (Pre-1980)).
Turning to `CS(=O)(=O)OCC#CCOS(C)(=O)=O`, under setting [3], the mutagenic call is “active; positive”.
`COc1cc2c[n+](C)c3c4cc(OC)c(OC)cc4ccc3c2cc1OC`: the mutagenic call under setting [8] was “no conclusion”.
Regarding `c1ccc2c(c1)cc1ccc3cc4ccccc4c4ccc2c1c34`, under setting [7], the call is “active; positive”. Moreover, under setting [9], the mutagenic call was “active; positive”.
`COP(=O)(OC)OC`: the mutagenic call reads like this: under setting [3], “active; positive”; under setting [1], “no conclusion”; (Species/Cell Type: Human lymphocytes or leukocytes, Assay Type: Chromosome aberrations in vitro, Assay Code: CY7+D, Dose Response: With dose response, Evaluation Type: Evaluation A (Pre-1980)) “active; positive”; under setting [4], “active; positive”; (Species/Cell Type: Mouse, Sex: Male, Assay Type: Sperm morphology, Assay Code: SPI+, Evaluation Type: Evaluation A (Pre-1980)) “active; positive”; (Species/Cell Type: Rodents, Sex: Male, Assay Type: Dominant lethal test, Assay Code: DLT+D, Dose Response: With dose response, Evaluation Type: Evaluation A (Pre-1980)) “active; positive”. Further, the mutagenic call under setting [10] was “active; positive”. Also, under setting [7], the call was “active; positive”.
For the compound `Cc1cc(N)c(N)cc1C`, the mutagenic call (Species/Cell Type: Mammalian polychromatic erythrocytes, Assay Type: Micronucleus test, chromosome aberrations, Assay Code: MNTT, Evaluation Type: Evaluation B (Post-1980)) is listed as “no conclusion”.
Regarding `O=NN(CCCCO)c1ccccc1`, the mutagenic call under setting [8] is given as “no conclusion”.
Consider `CCCCN(CCC(C)=O)N=O`, for which, under setting [9], the mutagenic call is “active; positive”.
Take `OC[C@@H](O)[C@@H](O)[C@H](O)[C@@H](O)CO`: the mutagenic call reads like this: (Species/Cell Type: Drosophila melanogaster, Assay Type: Aneuploidy, whole sex chromosome loss, chromosome aberrations, Assay Code: DAC-M, Evaluation Type: Evaluation A (Pre-1980)) “inactive; negative”; under setting [11], “no conclusion”; (Species/Cell Type: Rodents, Sex: Male, Assay Type: Dominant lethal test, Assay Code: DLT-, Evaluation Type: Evaluation A (Pre-1980)) “inactive; negative”.
For `CC(C)C[C@H](NC(=O)CNC(=O)[C@H](Cc1ccc(O)cc1)NC(=O)[C@H](CO)NC(=O)[C@H](Cc1c[nH]c2ccccc12)NC(=O)[C@H](Cc1cnc[nH]1)NC(=O)[C@@H]1CCC(=O)N1)C(=O)N[C@@H](CCCN=C(N)N)C(=O)N1CCC[C@H]1C(=O)NCC(N)=O`, the mutagenic call (Species/Cell Type: Human, Sex: Male, Assay Type: Sperm morphology, Assay Code: SPHT, Evaluation Type: Evaluation A (Pre-1980)) is reported as “no conclusion”.
Regarding `CCc1cccc(C)c1N(C(=O)CCl)C(C)COC` (centres undefined), the mutagenic call (Species/Cell Type: Zea mays (corn), Assay Type: Gene mutation, Assay Code: ZEM-, Evaluation Type: Evaluation A (Pre-1980)) was “inactive; negative”.
For `Nc1ccc2ccccc2c1`, the mutagenic call reads like this: (Species/Cell Type: Chinese hamster ovary (CHO) cells, Assay Type: Forward gene mutation at the HPRT locus, Assay Code: CHO+, Evaluation Type: Evaluation B (Post-1980)) “active; positive”; under setting [11], “no conclusion”; (Species/Cell Type: Escherichia coli polA (W3110 vs P3478), Assay Type: Rec-assay, DNA effects (bacterial DNA repair), Assay Code: RE2+, Evaluation Type: Evaluation A (Pre-1980)) “active; positive”; (Species/Cell Type: Escherichia coli polA (W3119 vs P3478), Assay Type: Rec-assay, DNA effects (bacterial DNA repair), Assay Code: RE1-, Evaluation Type: Evaluation A (Pre-1980)) “inactive; negative”; under setting [1], “no conclusion”; (Species/Cell Type: Fischer rat embryo (RLV/1706) cells, Assay Type: Cell transformation, viral enhanced, Assay Code: CTR+, Evaluation Type: Evaluation A (Pre-1980)) “active; positive”. The mutagenic call was “active; positive” under setting [4]; “inactive; negative” (Species/Cell Type: Mouse (BALB/c-3T3) cells, Assay Type: Cell transformation, Assay Code: CTB-, Evaluation Type: Evaluation A (Pre-1980)); “active; positive” (Species/Cell Type: Mouse embryo (AKR/ME) cells, Assay Type: Cell transformation, Assay Code: CTK+, Evaluation Type: Evaluation A (Pre-1980)); “inactive; negative” (Species/Cell Type: Mouse, Sex: Male, Assay Type: Sperm morphology, Assay Code: SPI-, Evaluation Type: Evaluation A (Pre-1980)); “active; positive” under setting [5]; “active; positive” (Species/Cell Type: Nonhuman, Assay Type: Sister-chromatid exchange (SCE) in vitro, Assay Code: SC2+D*, Activation: With metabolic activation, Dose Response: With dose response, Evaluation Type: Evaluation B (Post-1980)). For the same compound, the mutagenic call was “active; positive” (Species/Cell Type: Nonhuman, Assay Type: Sister-chromatid exchange (SCE) in vivo, Assay Code: SC3+, Evaluation Type: Evaluation B (Post-1980)); “active; positive” (Species/Cell Type: Saccharomyces cerevisiae, Assay Type: Forward gene mutation, Assay Code: YEF+*, Activation: With metabolic activation, Evaluation Type: Evaluation A (Pre-1980)); “active; positive” under setting [6]; “active; positive” (Species/Cell Type: Saccharomyces cerevisiae, Assay Type: Mitotic recombination or gene conversion, Assay Code: YEH+*, Activation: With metabolic activation, Evaluation Type: Evaluation A (Pre-1980)); “inactive; negative” (Species/Cell Type: Saccharomyces cerevisiae, Assay Type: Mitotic recombination or gene conversion, Assay Code: YEH-, Evaluation Type: Evaluation A (Pre-1980)); “active; positive” under setting [9]. For the same compound, the mutagenic call reads like this: (Species/Cell Type: Salmonella typhimurium, Assay Type: Forward and reverse gene mutation, host-mediated assay, Assay Code: HMA+, Evaluation Type: Evaluation A (Pre-1980)) “active; positive”; (Species/Cell Type: Syrian hamster embryo (SA7/SHE) cells, Assay Type: Cell transformation, viral enhanced, Assay Code: CT7+, Evaluation Type: Evaluation A (Pre-1980)) “active; positive”; (Species/Cell Type: Syrian hamster embryo (SHE) cells, Assay Type: Cell transformation, clonal assay, Assay Code: CTC+, Evaluation Type: Evaluation A (Pre-1980)) “active; positive”; under setting [10], “active; positive”. In addition, the call under setting [7] was “active; positive”.
